Results as given in ChEMBL document CHEMBL1126054, “Structure and molecular modeling of GABAA receptor antagonists” (J Med Chem, 1992).
pIC50: −log10 of the molar value.

Experiments:
[1] = biological target: GABA-A receptor; anion channel; experiment: Displacement of [3H]muscimol from Gamma-aminobutyric acid A (GABA-A) receptor; format: protein-complex assay, Rattus norvegicus
[2] = biological target: GABA-A receptor; anion channel; experiment: (§1) Displacement of [3H]GABA from gamma-aminobutyric-acid A (GABA-A) receptor; format: protein-complex assay, Rattus norvegicus
[3] = as §1; set-up: species or system Rattus norvegicus

Row | Structure (SMILES) | pIC50 [2] | further results
1 | c1ccc2c(c1)Cc1ccccc1-n1c-2nnc1N1CCNCC1 [PITRAZEPINE] | – | pIC50 [1]: 6.62
2 | CC12CC(=O)C3C(CCC4CC(O)CCC43C)C1CC(=N)N2 (stereo not given) | 7.70 | –
3 | COc1cc2c3cc1Oc1cc(ccc1O)C[C@@H]1c4c(cc(OC)c(O)c4Oc4ccc(cc4)C[C@@H]3N(C)CC2)CC[N+]1(C)C | 4.24 | –
4 | Oc1onc2c1CCNCC2 | 4.80 | –
5 | O=C1C=C2C=C[C@@H]3C[C@@]2(O1)[C@H]1CCCCN31 [SECURININE] | – | pIC50 [3]: 4.30
